Data: PMC9289467, “A Novel Multifunctional 5,6-Dimethoxy-Indanone-Chalcone-Carbamate Hybrids Alleviates Cognitive Decline in Alzheimer’s Disease by Dual Inhibition of Acetylcholinesterase and Inflammation” (Frontiers in Aging Neuroscience, 2022)

What was measured:
CD11c within microglia = assay: CD11c and Iba1 co-immunostaining (DAM marker); type: in vivo; details: AP5-treated vs APP/PS1 mice
Description: (§1) APP/PS1 mice of ages 6 months were randomly divided into vehicle (APP/PS1, n = 10) and treatment groups (AP5, n = 10), which were intragastrically administered with AP5 (40 mg/kg) once daily for consecutive 5 months. AP5 was dissolved in distilled water containing 1% sodium carboxymethyl cellulose.
The fixed hemibrains were paraffin-embedded and sectioned in the coronal plane. The slices were deparaffinized with xylene and rehydrated by a series of gradient alcohols. Antigen retrieval through microwave boiling was performed with 10 mM sodium citrate solution at pH 6.0. The slices were cooled down to room temperature and then rinsed in PBS solution. Then the slices were incubated in 10% goat serum blocking solution for 1 h followed by primary antibodies overnight at 4°C. The next day, the slides were labeled with biotinylated or fluorescent secondary antibodies. Slices were washed three times with PBS before being mounted. Images were captured using a SpinSR10 scanner (Olympus, Tokyo, Japan). […]
Cambridge, UK) or anti-GFAP (1:100, bs-0199R, Bioss) at4 °C. After being washed with PBS, slides were treated with a biotinylated secondary antibody for 30 min and with streptavidin-peroxidase complex for another 30 min at 37°C. Immunostaining was visualized with 3,3′-diaminobenzidine (DAB, ZL1-9018, Zhongshan Jinqiao, Beijing, China ).The images were acquired using a Nikon microscope (Nikon, […]

[1] = molecular target: T1, pre-formed Aβ42-AChE fibrils complex (Homo sapiens, UniProt P22303); assay: Disaggregation of pre-formed Aβ42-AChE fibrils (ThT); type: biochemical; details: Aβ42 pre-aggregated with AChE for 2 days before co-incubation with AP5
T1 construct: purchased Roche (AChE); Aladdin (Aβ42) R005282 (AChE); A118755 (Aβ42)
Description: The effects of AP5 on Aβ fibril formation and pre-formed Aβ fibrils disaggregation were determined using a previously described method of Thioflavin T (ThT, T3516, Sigma Aldrich, St. Louis, MO, United States) fluorometry ([Jan et al., 2010]).
Supplementary materials and methods … ...1 […]
Supplementary Figure 1 … .....7
Supplementary Figure 2 … .....7
Supplementary materials and methods
Prepations ofspecimen for pharmacokinetics analysis
24 h afterdosing. Brains were collected at0, 0.25, 0.5,2, 4,8 and 24 h after administration.Plasma extractions were performed by adding 90 μL methanol and 2 μL internalstandard letrozole (500 ng/mL) to a30 µL plasma sample. […]
Then 90 μL methanol and 2 μL letrozolewere added to 30 µl brainhomogenates. The samples were vortexed for 3 min and centrifuged 15 min at25,000 g.The plasma and brainhomogenate were analyzed by UPLC-TSQ/MS (Thermo Fisher Scientific, Waltham, MA, USA). […]
To study the kinetics of Aβ-AChE fibril complex formation, 10 μM Aβ was mixed with AChE (R005282, Roche, Basel, Switzerland) and different concentrations AP5 and incubated with 10 μM ThT and 50 mM glycine-NaOH (pH 8.5) at 37°C, the ThT fluorescence was continually measured for 24 h at 30 min intervals. […] Fluorescence emission at485 nm was measured on a Spectra MAX GeminiXS fluorometerat an excitation wavelength of 450 nm. […]

AChE = molecular target: T2, AChE (Mus musculus, UniProt P21836); assay: Brain AChE activity, Amplex Red kit, APP/PS1 mice; type: in vivo; details: AP5 40 mg/kg intragastric once daily 5 months, vs APP/PS1 mice
T2 construct: The brain samples were weighed, homogenized in PBS solution, and centrifuged; from tissue; host or cells: mouse brain (cortex and hippocampus) of APP/PS1 mice dosed with AP5
Description: as §1
The brain samples were weighed, homogenized in PBS solution, and centrifuged for 20 min at 25,000 g at 4°C. Amplex® Red acetylcholinesterase/acetylcholine assay kit (A12217, Thermo Fisher Scientific) was used to detect AChE activity and ACh levels in the supernatant in accordance with the manufacturer’s instructions.
Briefly, for ACh assay, the reactions were started by adding 100 µL of the Amplex Red reagent, HRP, choline oxidase, AChE working solution to each microplate well containing the controls and samples. For AChE assay, detection cocktail solution containing ACh, Amplex Red, choline oxidase and horseradish peroxidase was added toeach well. Assay plates were incubated at room temperature for 30 min and protected from light, followed by detecting fluorescence of resorufin (λex = 544 nm, λem = 590 nm) in a fluorescence microplate reader.
After deparaffinization and antigen retrieval, the sections were incubated with 0.3% hydrogen peroxide (H2O2) to inhibit endogenous peroxidase activity for 20 min and blocked by goat serum for 30 min at37°C. […]

T2 sequence (P21836 32-614): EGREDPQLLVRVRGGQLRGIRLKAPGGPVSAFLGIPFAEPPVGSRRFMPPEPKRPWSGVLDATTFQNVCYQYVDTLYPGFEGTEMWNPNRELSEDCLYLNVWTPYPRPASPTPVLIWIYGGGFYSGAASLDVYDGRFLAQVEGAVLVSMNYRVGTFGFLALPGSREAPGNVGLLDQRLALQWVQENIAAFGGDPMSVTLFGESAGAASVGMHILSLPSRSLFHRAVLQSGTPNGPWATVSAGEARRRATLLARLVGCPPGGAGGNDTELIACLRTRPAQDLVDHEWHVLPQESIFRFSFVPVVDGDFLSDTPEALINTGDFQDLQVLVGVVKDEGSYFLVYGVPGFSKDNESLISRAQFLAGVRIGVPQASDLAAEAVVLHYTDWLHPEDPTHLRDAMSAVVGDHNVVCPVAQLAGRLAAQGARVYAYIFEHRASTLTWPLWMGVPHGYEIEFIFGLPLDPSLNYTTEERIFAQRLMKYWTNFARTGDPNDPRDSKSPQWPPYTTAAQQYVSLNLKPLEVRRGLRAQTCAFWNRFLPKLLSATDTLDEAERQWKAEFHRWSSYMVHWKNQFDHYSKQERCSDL
T1 sequence (P22303 32-614, one chain of several): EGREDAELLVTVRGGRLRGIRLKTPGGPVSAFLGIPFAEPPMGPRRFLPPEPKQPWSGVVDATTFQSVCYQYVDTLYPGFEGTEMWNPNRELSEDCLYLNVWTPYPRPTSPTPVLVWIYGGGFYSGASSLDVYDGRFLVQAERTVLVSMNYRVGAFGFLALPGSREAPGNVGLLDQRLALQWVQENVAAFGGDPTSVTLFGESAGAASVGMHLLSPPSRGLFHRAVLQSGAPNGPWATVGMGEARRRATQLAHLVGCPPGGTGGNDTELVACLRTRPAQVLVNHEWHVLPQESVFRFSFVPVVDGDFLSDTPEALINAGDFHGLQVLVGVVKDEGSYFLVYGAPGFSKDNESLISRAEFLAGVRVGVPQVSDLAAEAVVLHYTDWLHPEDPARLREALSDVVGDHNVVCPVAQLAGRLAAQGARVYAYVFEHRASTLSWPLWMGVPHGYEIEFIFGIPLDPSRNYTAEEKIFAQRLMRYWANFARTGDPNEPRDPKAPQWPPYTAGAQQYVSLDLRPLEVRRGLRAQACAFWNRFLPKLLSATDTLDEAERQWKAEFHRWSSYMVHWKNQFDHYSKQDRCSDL

`CCN(C)C(=O)Oc1cccc(/C=C2\Cc3cc(OC)c(OC)cc3C2=O)c1` [AP5, (E)-3-((5,6-dimethoxy-1-oxo-1,3-dihydro-2H-inden-2-ylidene)-methyl)phenylethyl(methyl)carbamate] was tested, and the “CD11c-positive area within the activated microglia” value (CD11c within microglia) was “significantly elevated”, the “ThT fluorescence intensity, disaggregation of pre-formed Aβ42 fibrils” value [1] was “marked decline of ThT fluorescence intensity” and the “AChE activity in cortex and hippocampus” value (AChE) was “decreased activity of AChE”.
